Data reported in paper PMC9320521, “Detection of Unprecedented CYP74 Enzyme in Mammal: Hydroperoxide Lyase CYP74C44 of the Bat Sturnira hondurensis” (International Journal of Molecular Sciences, 2022).

System: CYP74C44 (ShHPL)
Assay: UV absorbance decrease at […] nm
Assay type: biochemical, Sturnira hondurensis
Details: Na phosphate buffer pH 7.0, 25 °C, 5 to 150 μM substrate

| Km [µM] | SMILES |
| --- | --- |
| 28.4 ± 6.7 | CC/C=C\C[C@@H](/C=C/C=C\CCCCCCCC(=O)O)OO [13-HPOT, (9Z,11E,13S,15Z)-13-hydroperoxy-9,11,15-octadecatrienoic] |
| 8.17 ± 1.6 | CC/C=C\C[C@@H](/C=C/C=C\C/C=C\C/C=C\CCCC(=O)O)OO [15-HPEPE] |
| 46.6 ± 7.2 | CCCCC/C=C\C=C\[C@H](CCCCCCCC(=O)O)OO [9-HPOD, (9S,10E,12Z)-9-Hydroperoxy-10,12-octadecadienoic] |
| 57.9 ± 13.3 | CCCCC[C@@H](/C=C/C=C\CCCCCCCC(=O)O)OO [13-HPOD, (9Z,11E,13S)-13-hydroperoxy-9,11-octadecadienoic] |
| 20.9 ± 5.6 | CC/C=C\C/C=C\C=C\[C@H](CCCCCCCC(=O)O)OO [9-HPOT, (9S,10E,12Z,15Z)-9-hydroperoxy-10,12,15-octadecatrienoic] |
